What was measured:
Type in all cases: biochemical
[1] = target: T1, FGFr (human FGF-1 (flg) receptor tyrosine kinase) (Homo sapiens, UniProt P11362); assay: FGFr tyrosine kinase assay, 32P incorporation into glutamate-tyrosine copolymer; conditions: 50 μM ATP; read-out: FGFr IC50
T1 construct: PCR primers are designed to amplify a fragment of DNA that codes for the intracellular tyrosine kinase domain; made in house; host or cells: Sf9 insect cells (baculovirus), cell lysate
Protocol: (§1) Platelet Derived Growth Factor Receptor (PDGFr) and Fibroblast Growth Factor Receptor (FGFr). Full length cDNAs for the mouse PDGF-β and human FGF-1 (flg) receptor tyrosine kinases were obtained from J. Escobedo and are prepared as described in J. Biol. Chem., 1991;262:1482-1487. PCR primers are designed to amplify a fragment of DNA that codes for the intracellular tyrosine kinase domain. The fragment is melded into a baculovirus vector, cotransfected with AcMNPV DNA, and the recombinant virus isolated. SF9 insect cells are infected with the virus to overexpress the protein, and the cell lysate is used for the assay.
(§2) PDGFr and FGFr. […] Briefly, to each well is added 82.5 μL of incubation buffer containing 25 mM Hepes (pH 7.0), 150 mM NaCl, 0.1% Triton X-100, 0.2 mM PMSF, 0.2 mM sodium vanadate, 10 mM manganese chloride, and 750 μg/mL of poly (4:1) glutamate-tyrosine followed by 2.5 μL of inhibitor and 5 μL of enzyme lysate (7.5 μg/μL FGFR-TK or 6.0 μg/μL PDGFR-TK) to initiate the reaction. Following a 10 minute incubation at 25° C., 10 μL of [γ^32 P]ATP (0.4 μCi plus 50 μM ATP) is added to each well, and samples are incubated for an additional 10 minutes at 25° C. The reaction is terminated by the addition of 100 μL of 30% trichloroacetic acid (TCA) containing 20 mM sodium pyrophosphate and precipitation of material onto glass fiber filter mats (Wallac). […] Nonspecific activity is defined as radioactivity retained on the filters following incubation of samples with buffer alone; (no enzyme). Specific enzymatic activity is defined as total activity (enzyme plus buffer) minus nonspecific activity.

[2] = target: T2, PDGFr (mouse PDGF-β receptor tyrosine kinase) (Mus musculus, UniProt P05622); assay: PDGFr tyrosine kinase assay, 32P incorporation into glutamate-tyrosine copolymer; conditions: 50 μM ATP
T2 construct: PCR primers are designed to amplify a fragment of DNA that codes for the intracellular tyrosine kinase domain; made in house; host or cells: Sf9 insect cells (baculovirus), cell lysate
Protocol: as §1, §2

[3] = target: T3, c-Src (Homo sapiens, UniProt P12931); assay: c-Src kinase assay, 32P incorporation into polyglutamate-tyrosine; conditions: 5 μM ATP
T3 construct: made in house; host or cells: baculovirus infected insect cells
Protocol: (§3) Other Kinases. c-Src kinase is purified from baculovirus infected insect cell lysates using an antipeptide monoclonal antibody directed against the N-terminal 2-17 amino acids as described previously by Fry, et al., Anticancer Drug Design, 1994;9:331-351. Protein kinase C (PKC.) is obtained as a rat brain preparation from Promega.
c-Src. The antibody, covalently linked to 0.65-μm latex beads, is added to a suspension of insect cell lysis buffer comprised of 150 mM NaCl, 50 mM Tris pH 7.5, 1 mM DTT, 1% NP-40, 2 mM EGTA, 1 mM sodium vanadate, 1 mM PMSF, 1 μg/mL each of leupeptin, pepstatin, and aprotinin. Insect cell lysate containing the c-Src protein is incubated with these beads for 3 to 4 hours at 4° C. with rotation. At the end of the lysate incubation, the beads are rinsed three times in lysis buffer, resuspended in lysis buffer containing 10% glycerol, and frozen. These latex beads are thawed, rinsed three times in assay buffer which is comprised of 40 mM tris pH 7.5, 5 mM magnesium chloride, and suspended in the same buffer. In a Millipore 96-well plate with a 0.65 μm polyvinylidine membrane bottom are added the reaction components: 10-μL c-Src beads, 10 μL of 2.5 mg/mL polyglutamate-tyrosine substrate, 5 μM ATP containing 0.2 μCi labeled ^32 P-ATP, 5 μL DMSO containing inhibitors or as a solvent control, and buffer to make the final volume 125 μL. The reaction is started at room temperature by addition of the ATP and quenched 10 minutes later by the addition of 125 μL of 30% TCA, 0.1 M sodium pyrophosphate for 15 minutes on ice. The plate is then filtered and the wells washed with two 250-μL aliquots of 15% TCA, 0.1 M pyrophosphate. The filters are punched, counted in a liquid scintillation counter, and the data examined for inhibitory activity in comparison to a known inhibitor such as erbstatin. The method is described more fully in J. Med. Chem., 1994;37:598-609.

[4] = target: Protein kinase C (PKC); assay: Protein kinase C (PKC) assay; conditions: rat brain preparation
Protocol: as §3
Other Kinases. An assay using the intracellular kinase domains of insulin receptor (INSr) is performed as described for the EGF receptor except that 10 mM manganese chloride is included in the reaction. The PKC assay is performed as previously described by Martiny-Baron, et al., J. Biol. Chem., 1993;268:9194-9197.

[5] = target: T4, EGFr (Human EGF receptor tyrosine kinase) (Homo sapiens, UniProt P00533); assay: EGFr tyrosine kinase assay; conditions: 10 μM ATP
T4 construct: Human EGF receptor tyrosine kinase is isolated from A431 human epidermoid carcinoma cells; endogenous in cells; host or cells: A431 human epidermoid carcinoma cells (detergent lysate, Q Sepharose fractions)
Protocol: Epidermal Growth Factor Receptor (EGFr). Human EGF receptor tyrosine kinase is isolated from A431 human epidermoid carcinoma cells by the following method. Cells were grown in roller bottles in 50% Dulbecco's Modified Eagle medium and 50% HAM F-12 nutrient media (Gibco) containing 10% fetal calf serum. Approximately 10^9 cells are lysed in two volumes of buffer containing 20 mM 2-(4N-[2-[…]]piperazin-1-yl)ethanesulfonic acid (Hepes), pH 7.4, 5 mM ethylene glycol bis(2-aminoethyl ether) N,N,N',N'-tetraacetic acid (EGTA), 1% Triton X-100, 10% glycerol, 0.1 mM sodium orthovanadate, 5 mM sodium fluoride, 4 mM pyrophosphate, 4 mM benzamide, 1 mM dithiothreitol (DTT), 80 μg/mL aprotinin, 40 μg/mL leupeptin, and 1 mM phenylmethylsulfonyl fluoride (PMSF). After centrifugation at 25,000×g for 10 minutes, the supernatant is applied to a fast Q sepharose column (Pharmacia) and eluted with a linear gradient from 0.1 M NaCl to 0.4 M NaCl in 50 mM Hepes, 10% glycerol, pH 7.4. Enzyme active fractions are pooled, divided into aliquots, and stored at -100° C.
EGFr. Enzyme assays for IC50 determinations are performed in 96-well filter plates (Millipore MADVN6550). The total volume is 0.1 mL containing 20 mM Hepes, pH 7.4, 50 μM sodium vanadate, 40 mM magnesium chloride, 10 μM ATP containing 0.5 μCi of [^32 P]ATP, 20 μg of polyglutamic acid/tyrosine (Sigma Chemical Co., St. Louis, Mo.), 10 ng of EGF receptor tyrosine kinase and appropriate dilutions of inhibitor. All components except the ATP are added to the well, and the plate is incubated with shaking for 10 minutes at 25° C. The reaction is started by adding [^32 P]ATP, and the plate is incubated at 25° C. for 10 minutes. The reaction is terminated by addition of 0.1 mL of 20% trichloroacetic acid (TCA). The plate is kept at 4° C. for at least 15 minutes to allow the substrate to precipitate. The wells are then washed five times with 0.2 mL of 10% TCA, and ^32 P incorporation is determined with a Wallac beta plate counter.

T1 sequence (P11362 478-767 limits assumed): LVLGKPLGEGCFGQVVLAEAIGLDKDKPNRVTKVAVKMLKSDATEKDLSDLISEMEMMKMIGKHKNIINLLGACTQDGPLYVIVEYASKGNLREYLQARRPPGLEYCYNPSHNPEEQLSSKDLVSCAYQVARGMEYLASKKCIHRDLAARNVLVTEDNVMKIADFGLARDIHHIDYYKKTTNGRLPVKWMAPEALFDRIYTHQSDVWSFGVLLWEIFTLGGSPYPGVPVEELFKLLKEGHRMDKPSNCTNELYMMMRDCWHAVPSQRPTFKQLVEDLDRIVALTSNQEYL
T2 sequence (P05622 599-961 limits assumed): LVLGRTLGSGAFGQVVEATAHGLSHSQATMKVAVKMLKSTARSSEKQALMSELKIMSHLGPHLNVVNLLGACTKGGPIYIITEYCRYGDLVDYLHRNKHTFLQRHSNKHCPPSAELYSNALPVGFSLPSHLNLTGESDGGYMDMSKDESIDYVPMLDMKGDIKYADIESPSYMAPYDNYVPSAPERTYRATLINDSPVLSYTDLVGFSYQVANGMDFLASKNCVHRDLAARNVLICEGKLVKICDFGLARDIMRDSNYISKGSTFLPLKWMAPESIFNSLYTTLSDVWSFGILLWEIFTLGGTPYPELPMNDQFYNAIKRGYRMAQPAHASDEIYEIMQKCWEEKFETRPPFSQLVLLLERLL
T3 sequence (P12931 whole entry, species assumed): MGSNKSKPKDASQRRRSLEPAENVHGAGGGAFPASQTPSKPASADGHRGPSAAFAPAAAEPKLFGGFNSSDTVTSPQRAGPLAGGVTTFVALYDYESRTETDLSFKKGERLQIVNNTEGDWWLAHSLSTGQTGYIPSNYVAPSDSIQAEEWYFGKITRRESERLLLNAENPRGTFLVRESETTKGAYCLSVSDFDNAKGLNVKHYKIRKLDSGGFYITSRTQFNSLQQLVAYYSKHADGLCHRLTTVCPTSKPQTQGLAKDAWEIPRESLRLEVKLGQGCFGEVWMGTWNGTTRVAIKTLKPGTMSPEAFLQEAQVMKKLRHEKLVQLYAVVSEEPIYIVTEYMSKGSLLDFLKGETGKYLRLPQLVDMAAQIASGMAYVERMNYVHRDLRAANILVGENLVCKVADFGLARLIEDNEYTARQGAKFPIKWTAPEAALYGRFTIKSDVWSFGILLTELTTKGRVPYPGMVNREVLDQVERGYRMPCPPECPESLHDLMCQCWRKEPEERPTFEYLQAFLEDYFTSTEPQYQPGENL
T4 sequence (P00533 25-1210): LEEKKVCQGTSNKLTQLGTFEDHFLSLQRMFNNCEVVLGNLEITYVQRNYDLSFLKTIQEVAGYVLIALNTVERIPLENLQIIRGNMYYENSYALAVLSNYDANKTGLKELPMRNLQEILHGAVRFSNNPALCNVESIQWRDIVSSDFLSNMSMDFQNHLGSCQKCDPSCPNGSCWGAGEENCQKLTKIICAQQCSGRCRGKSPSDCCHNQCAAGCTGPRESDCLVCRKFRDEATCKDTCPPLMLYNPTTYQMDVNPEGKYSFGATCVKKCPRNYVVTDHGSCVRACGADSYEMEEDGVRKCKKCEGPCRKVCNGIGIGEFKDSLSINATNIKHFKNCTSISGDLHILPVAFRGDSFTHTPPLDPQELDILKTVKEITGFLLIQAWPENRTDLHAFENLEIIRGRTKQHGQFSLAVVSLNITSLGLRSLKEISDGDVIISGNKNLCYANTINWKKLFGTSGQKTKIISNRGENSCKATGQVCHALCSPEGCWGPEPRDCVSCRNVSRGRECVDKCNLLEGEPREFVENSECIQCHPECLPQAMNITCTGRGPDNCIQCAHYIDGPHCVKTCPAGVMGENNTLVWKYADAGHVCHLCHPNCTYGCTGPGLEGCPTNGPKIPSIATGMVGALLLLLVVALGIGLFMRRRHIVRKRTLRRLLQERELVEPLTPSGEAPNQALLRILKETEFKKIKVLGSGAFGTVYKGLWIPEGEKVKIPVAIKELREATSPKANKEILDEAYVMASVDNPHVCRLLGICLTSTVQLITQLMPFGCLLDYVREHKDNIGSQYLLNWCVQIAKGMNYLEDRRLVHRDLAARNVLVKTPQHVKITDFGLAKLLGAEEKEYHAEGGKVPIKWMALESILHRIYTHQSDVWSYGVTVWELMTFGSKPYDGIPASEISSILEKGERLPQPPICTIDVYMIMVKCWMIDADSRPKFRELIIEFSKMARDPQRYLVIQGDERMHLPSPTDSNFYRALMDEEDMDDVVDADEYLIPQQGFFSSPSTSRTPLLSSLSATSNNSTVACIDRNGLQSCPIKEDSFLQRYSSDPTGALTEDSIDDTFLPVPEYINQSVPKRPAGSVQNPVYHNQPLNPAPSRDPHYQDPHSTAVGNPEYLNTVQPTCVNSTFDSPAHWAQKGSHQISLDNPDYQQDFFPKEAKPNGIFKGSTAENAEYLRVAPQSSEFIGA

IC50 [1] | IC50 [2] | IC50 [3] | SMILES | IC50 [4] | IC50 [5]
3.7 µM | 16 µM | 13 µM | CCN(CC)CCNc1cc2c(cn1)cc(-c1c(Cl)cccc1Cl)c(=O)n2C [Example D, 3-(2,6-dichlorophenyl)-7-[2-(diethylamino)ethylamino]-1-methyl-1H-[1,6]naphthyridin-2-one] | – | –
0.22 µM | 4 µM | 0.3 µM | CCN(CC)CCCNc1cc2c(cn1)cc(-c1c(Cl)cccc1Cl)c(=O)n2C [Example E, 3-(2,6-dichlorophenyl)-7-[3-(diethylamino)propylamino]-1-methyl-1H-[1,6]naphthyridin-2-one] | – | –
0.07 µM | 0.69 µM | 0.02 µM | CCN(CC)CCCCCNc1cc2c(cn1)cc(-c1c(Cl)cccc1Cl)c(=O)n2C [Example G, 3-(2,6-dichlorophenyl)-7-[5-(diethylamino)pentylamino]-1-methyl-1H-[1,6]naphthyridin-2-one] | – | –
– | 0.95 µM | 0.04 µM | CN1CCN(CCCCNc2cc3c(cn2)cc(-c2c(Cl)cccc2Cl)c(=O)n3C)CC1 [Example I, 3-(2,6-dichlorophenyl)-1-methyl-7-[4-(4-methylpiperazin-1-yl)butylamino]-1H-[1,6]naphthyridin-2-one] | – | –
3.3 µM | 9.6 µM | 0.55 µM | Cn1c(=O)c(-c2c(Cl)cccc2Cl)cc2cnc(Nc3ccncc3)cc21 [Example N, 3-(2,6-dichlorophenyl)-1-methyl-7-(4-pyridylamino)-1H-[1,6]naphthyridin-2-one] | – | –
1.2 µM | 1.7 µM | 1.7 µM | COc1ccc(Nc2cc3c(cn2)cc(-c2c(Cl)cccc2Cl)c(=O)n3C)cc1 [Example O, 3-(2,6-dichlorophenyl)-7-[(4-methoxyphenyl)amino]-1-methyl-1H-[1,6]naphthyridin-2-one] | – | –
– | 0.26 µM | 0.02 µM | CN1CCN(c2ccc(Nc3cc4c(cn3)cc(-c3c(Cl)cccc3Cl)c(=O)n4C)cc2)CC1 [Example U, 3-(2,6-dichlorophenyl)-1-methyl-7-[(4-(4-methylpiperazin-1-yl)phenyl)amino]-1H-[1,6]naphthyridin-2-one] | – | –

Second part, the compound before the results:

SMILES | IC50 [1] | IC50 [2] | IC50 [3] | IC50 [4] | IC50 [5]
Cn1c(=O)c(-c2c(Cl)cccc2Cl)cc2cnc(N)cc21 [Example A, 7-amino-3-(2,6-dichlorophenyl)-1-methyl-1H-[1,6]naphthyridin-2-one] | 0.28 µM | 2.5 µM | 0.35 µM | 50 µM | –
CNc1cc2c(cn1)cc(-c1c(Cl)cccc1Cl)c(=O)n2C [Example B, 3-(2,6-dichlorophenyl)-1-methyl-7-methylamino-1H-[1,6]naphthyridin-2-one] | 0.34 µM | 3.6 µM | 0.42 µM | – | –
CN1CCN(CCCCCNc2cc3c(cn2)cc(-c2c(Cl)cccc2Cl)c(=O)n3C)CC1 [Example J, 3-(2,6-dichlorophenyl)-1-methyl-7-[5-(4-methylpiperazin-1-yl)pentylamino]-1H-[1,6]naphthyridin-2-one] | – | 0.85 µM | 0.03 µM | – | –
Cn1c(=O)c(-c2c(Cl)cccc2Cl)cc2cnc(NCCCN3CCOCC3)cc21 [Example K, 3-(2,6-dichlorophenyl)-1-methyl-7-[3-(4-morpholino)propylamino]-1H-[1,6]naphthyridin-2-one] | – | 4.7 µM | 0.36 µM | > 50 µM | < 50 µM
Cn1c(=O)c(-c2c(Cl)cccc2Cl)cc2cnc(NCCCn3ccnc3)cc21 [Example L, 3-(2,6-dichlorophenyl)-7-[3-(imidazol-1-yl)propylamino]-1-methyl-1H-[1,6]naphthyridin-2-one] | – | 1.7 µM | 0.54 µM | – | –
Cn1c(=O)c(-c2c(Cl)cccc2Cl)cc2cnc(Nc3ccccc3)cc21 [Example M, 3-(2,6-dichlorophenyl)-1-methyl-7-(phenylamino)-1H-[1,6]naphthyridin-2-one] | 1.3 µM | 1 µM | 0.79 µM | > 50 µM | < 50 µM
Cn1c(=O)c(-c2c(Cl)cccc2Cl)cc2cnc(NCCCCN3CCOCC3)cc21 [Example Q, 3-(2,6-dichlorophenyl)-1-methyl-7-[4-(4-morpholino)butylamino]-1H-[1,6]naphthyridin-2-one] | – | 3.1 µM | 0.05 µM | – | –
CCN(CC)CCCOc1ccc(Nc2cc3c(cn2)cc(-c2c(Cl)cccc2Cl)c(=O)n3C)cc1 [Example R, 3-(2,6-dichlorophenyl)-7-[(4-(3-(diethylamino)propoxy)phenyl)amino]-1-methyl-1H-[1,6]naphthyridin-2-one] | 0.18 µM | 0.37 µM | 0.03 µM | – | –
CN1CCN(CCCOc2ccc(Nc3cc4c(cn3)cc(-c3c(Cl)cccc3Cl)c(=O)n4C)cc2)CC1 [Example T, 3-(2,6-dichlorophenyl)-1-methyl-7-[(4-(3-(4-methylpiperazin-1-yl)propoxy)phenyl)amino]-1H-[1,6]naphthyridin-2-one] | – | 0.37 µM | 0.03 µM | – | –
